Results taken from the NIST ThermoML archive (doi:10.1021/acs.jced.8b00854).
“And” between values parts separate entries of the source, which are not always exact repeats. Identical values can stand only once. ± gives the expanded uncertainty stated by the source.

What was measured:
[1] = refractive index (Na D-line) (dimensionless); settings: 100 kPa, Liquid, Standard Abbe refractometry
[2] = 100 kPa, Liquid, Vibrating tube method
[3] = refractive index (Na D-line) (dimensionless); xn = mol fraction of the nth substance listed; settings: 100 kPa, Liquid, Standard Abbe refractometry, x2 = 0
[4] = xn = mol fraction of the nth substance listed; settings: 100 kPa, Liquid, Vibrating tube method, x2 = 0

For `O` [water], the refractive index ([1]; 293.15 K) was 1.3335 ± 0.0016, the refractive index ([1]; 303.15 K) was 1.3315 ± 0.0016 and the refractive index ([1]; 313.15 K) was 1.3305 ± 0.0016. For the same compound, the refractive index ([1]; 323.15 K) was 1.329 ± 0.0016, the refractive index ([1]; 333.15 K) was 1.3275 ± 0.0016 and the refractive index ([1]; 343.15 K) was 1.326 ± 0.0016. The mass density ([2]; 323.15 K) was 988.04 ± 2 kg/m3, the mass density ([2]; 333.15 K) was 981.56 ± 2 kg/m3 and 988.04 ± 2 kg/m3 and the mass density ([2]; 343.15 K) was 972.75 ± 2 kg/m3.
`O` [water] + CCCCn1cc[n+](C)c1.F[B-](F)(F)F gave a refractive index ([3]; 293.15 K) of 1.3335 ± 0.0016, a refractive index ([3]; 303.15 K) of 1.3315 ± 0.0016 and a refractive index ([3]; 313.15 K) of 1.3305 ± 0.0016. The refractive index ([3]; 323.15 K) was 1.329 ± 0.0016, the refractive index ([3]; 333.15 K) was 1.3275 ± 0.0016 and the refractive index ([3]; 343.15 K) was 1.326 ± 0.0016. The mass density ([4]; 323.15 K) was 988.04 ± 2 kg/m3, the mass density ([4]; 333.15 K) was 981.56 ± 2 kg/m3 and the mass density ([4]; 343.15 K) was 972.75 ± 2 kg/m3.
`O` [water] + CCCCCCCC[n+]1ccn(C)c1.F[B-](F)(F)F gave a refractive index ([3]; 293.15 K) of 1.3335 ± 0.0016, a refractive index ([3]; 303.15 K) of 1.3315 ± 0.0016 and a refractive index ([3]; 313.15 K) of 1.3305 ± 0.0016. The refractive index ([3]; 323.15 K) was 1.329 ± 0.0016, the refractive index ([3]; 333.15 K) was 1.3275 ± 0.0016 and the refractive index ([3]; 343.15 K) was 1.326 ± 0.0016. For the same compound, the mass density ([4]; 323.15 K) was 988.04 ± 2 kg/m3, the mass density ([4]; 333.15 K) was 988.04 ± 2 kg/m3 and the mass density ([4]; 343.15 K) was 972.75 ± 2 kg/m3.
Compound `O` [water] + CCCCCCn1cc[n+](C)c1.F[B-](F)(F)F has a refractive index ([3]; 293.15 K) of 1.3335 ± 0.0016, a refractive index ([3]; 303.15 K) of 1.3315 ± 0.0016 and a refractive index ([3]; 313.15 K) of 1.3305 ± 0.0016. The refractive index ([3]; 323.15 K) was 1.329 ± 0.0016, the refractive index ([3]; 333.15 K) was 1.3275 ± 0.0016 and the refractive index ([3]; 343.15 K) was 1.326 ± 0.0016. It also gave a mass density ([4]; 323.15 K) of 988.04 ± 2 kg/m3, a mass density ([4]; 333.15 K) of 981.56 ± 2 kg/m3 and a mass density ([4]; 343.15 K) of 972.75 ± 2 kg/m3.
`O` [water] + CCn1cc[n+](C)c1.O=S(=O)([O-])C(F)(F)F showed a refractive index ([3]; 293.15 K) of 1.3335 ± 0.0016, a refractive index ([3]; 303.15 K) of 1.3315 ± 0.0016 and a refractive index ([3]; 313.15 K) of 1.3305 ± 0.0016. For the same compound, the refractive index ([3]; 323.15 K) was 1.329 ± 0.0016, the refractive index ([3]; 333.15 K) was 1.3275 ± 0.0016 and the refractive index ([3]; 343.15 K) was 1.326 ± 0.0016. The mass density ([4]; 323.15 K) was 988.04 ± 2 kg/m3, the mass density ([4]; 333.15 K) was 981.56 ± 2 kg/m3 and the mass density ([4]; 343.15 K) was 972.75 ± 2 kg/m3.
Compound `O` [water] + CCCCn1cc[n+](C)c1.O=S(=O)([O-])C(F)(F)F has a refractive index ([3]; 293.15 K) of 1.3335 ± 0.0016, a refractive index ([3]; 303.15 K) of 1.3315 ± 0.0016 and a refractive index ([3]; 313.15 K) of 1.3305 ± 0.0016. It also gave a refractive index ([3]; 323.15 K) of 1.329 ± 0.0016, a refractive index ([3]; 333.15 K) of 1.3275 ± 0.0016 and a refractive index ([3]; 343.15 K) of 1.326 ± 0.0016. The mass density ([4]; 323.15 K) was 988.04 ± 2 kg/m3, the mass density ([4]; 333.15 K) was 981.56 ± 2 kg/m3 and the mass density ([4]; 343.15 K) was 972.75 ± 2 kg/m3.
Work on `O` [water] + CCn1cc[n+](C)c1.F[B-](F)(F)F yielded a refractive index ([3]; 293.15 K) of 1.3335 ± 0.0016, a refractive index ([3]; 303.15 K) of 1.3315 ± 0.0016 and a refractive index ([3]; 313.15 K) of 1.3305 ± 0.0016. It also gave a refractive index ([3]; 323.15 K) of 1.329 ± 0.0016, a refractive index ([3]; 333.15 K) of 1.3275 ± 0.0016 and a refractive index ([3]; 343.15 K) of 1.326 ± 0.0016. For the same compound, the mass density ([4]; 323.15 K) was 988.04 ± 2 kg/m3, the mass density ([4]; 333.15 K) was 981.56 ± 2 kg/m3 and the mass density ([4]; 343.15 K) was 972.75 ± 2 kg/m3.
`O` [water] + CCCCCCCCOS(=O)(=O)[O-].CCCCn1cc[n+](C)c1 showed a refractive index ([3]; 293.15 K) of 1.3335 ± 0.0016, a refractive index ([3]; 303.15 K) of 1.3315 ± 0.0016 and a refractive index ([3]; 313.15 K) of 1.3305 ± 0.0016. It also gave a refractive index ([3]; 323.15 K) of 1.329 ± 0.0016, a refractive index ([3]; 333.15 K) of 1.3275 ± 0.0016 and a refractive index ([3]; 343.15 K) of 1.326 ± 0.0016. It also gave a mass density ([4]; 323.15 K) of 988.04 ± 2 kg/m3, a mass density ([4]; 333.15 K) of 981.56 ± 2 kg/m3 and a mass density ([4]; 343.15 K) of 972.75 ± 2 kg/m3.
